Numbered stars: 1 amine (or outer) side, 2 acyl side, 3 side chain; on linkers, the order of the positions; unused ones are H or OH. Bridge positions count the residues as written; N and C are the ends. Square brackets hold non-standard residues; d marks the D form. Peptide text beside a SMILES is read from it. * marks the point of attachment. hPhe(3,5-F2-4-CF3) = N[C@@H](CCc1cc(F)c(C(F)(F)F)c(F)c1)C(=O)O; hPhe(3-Cl-4-CF3) = N[C@@H](CCc1ccc(C(F)(F)F)c(Cl)c1)C(=O)O; hPhe(3-F,4-CF3) = N[C@@H](CCc1ccc(C(F)(F)F)c(F)c1)C(=O)O; NEtPhe(4-CF3) = CCN[C@@H](Cc1ccc(C(F)(F)F)cc1)C(=O)O; NMePhe(4-CF3) = CN[C@@H](Cc1ccc(C(F)(F)F)cc1)C(=O)O; NEtPhe(4-Me) = CCN[C@@H](Cc1ccc(C)cc1)C(=O)O; NMePhe(4-Cl) = CN[C@@H](Cc1ccc(Cl)cc1)C(=O)O; NMedβ3hAla = C[C@H](CC(=O)[*:2])N(C)[*:1]; NMeGly(cPent) = CN[C@H](C(=O)O)C1CCCC1; NMeCha = CN[C@@H](CC1CCCCC1)C(=O)O; Hyp = O=C(O)[C@@H]1C[C@@H](O)CN1; NMeChg = CN[C@H](C(=O)O)C1CCCCC1; NMeI = CC[C@H](C)[C@H](NC)C(=O)O; NMeD = CN[C@@H](CC(=O)O)C(=O)O; NMeL = CN[C@@H](CC(C)C)C(=O)O; Cba = N[C@@H](CC1CCC1)C(=O)O; NMeV = CN[C@H](C(=O)O)C(C)C; d(β3hA) = C[C@@H](N)CC(=O)O; Azetidin(1-yl) = C1CN(*)C1; NMeS = CN[C@@H](CO)C(=O)O; NMeA = CN[C@@H](C)C(=O)O; Piperidide = C1CCN(*)CC1; Pyrrolidide = C1CCN(*)C1; Ac5c = NC1(C(=O)O)CCCC1; Aze = O=C(O)[C@@H]1CCN1; Ac4c = NC1(C(=O)O)CCC1; Cyclobutyl = C1CC(*)C1; Aib = CC(C)(N)C(=O)O; NEtG = CCNCC(=O)O; Sar = CNCC(=O)O; Propyl = CCC*
target: protein-protein interaction between Kras and SOS1 (biotin-tagged human Kras loaded with GDP, His-tagged human SOS1) (Homo sapiens (Human), UniProt P01116, G12D); experiment: Protein-protein interaction inhibition between Kras and SOS1 (KrasG12D-SOS PPI) using AlphaScreen; format: biochemical; settings: AlphaScreen; biotin-tagged human Kras loaded with GDP, His-tagged human SOS1; read-out: KRAS G12D-SOS PPI IC50;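 note: kras produced in E. coli, Ni-coupled donor beads and streptavidin acceptor beads, excitation 680 nm with emission detected at 520–620 nm via singlet oxygen transfer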

Row | SMILES | IC50 [nM]
1 | CCCOC[C@H]1C(=O)N(C)CC(=O)N[C@@H](CCc2ccc(C(F)(F)F)c(F)c2)C(=O)N2CCC[C@H]2C(=O)NC2(CCCC2)C(=O)N(C)[C@@H]([C@@H](C)CC)C(=O)N(C)[C@H](C)CC(=O)N(C)[C@@H](CC(C)C)C(=O)N[C@@H]([C@@H](C)CC)C(=O)N(C)[C@@H](C)C(=O)N2CC[C@H]2C(=O)N1C [Compound 694] (cyclo([Ac5c][NMeI][NMedβ3hAla][NMeL]I[NMeA][Aze][NMeS](Propyl)[Sar][hPhe(3-F,4-CF3)]P)) | 14
2 | CC[C@H](C)[C@@H]1NC(=O)[C@H](CC(C)C)N(C)C(=O)C[C@@H](C(=O)N2CCCC2)NC(=O)[C@H](C2CCCC2)N(C)C(=O)C2(CCCC2)NC(=O)[C@@H]2CCCN2C(=O)[C@H](CCc2ccc(C(F)(F)F)c(Cl)c2)NC(=O)CN(C)C(=O)[C@H](CC2CCCCC2)N(C)C(=O)[C@@H]2CCN2C(=O)[C@H](C)N(C)C1=O [Compound 700] ([NMeL]I[NMeA][Aze][NMeCha][Sar][hPhe(3-Cl-4-CF3)]P[Ac5c][NMeGly(cPent)]D-Pyrrolidide; lactam N-11) | 5
3 | CCO[C@@H]1C[C@H]2C(=O)NC3(CCC3)C(=O)N(C)[C@@H](C3CCCCC3)C(=O)N(C)[C@H](C)CC(=O)N(C)[C@@H](CC(C)C)C(=O)N[C@@H]([C@@H](C)CC)C(=O)N(C)[C@@H](C)C(=O)N3CC[C@H]3C(=O)N(CC)[C@@H](Cc3ccc(C)cc3)C(=O)N(C)CC(=O)N[C@@H](CCc3cc(F)c(C(F)(F)F)c(F)c3)C(=O)N2C1 [Compound 724] (cyclo([Ac4c][NMeChg][NMedβ3hAla][NMeL]I[NMeA][Aze][NEtPhe(4-Me)][Sar][hPhe(3,5-F2-4-CF3)][Hyp](Et))) | 24
4 | CC[C@H](C)[C@@H]1NC(=O)[C@H](CC(C)C)N(C)C(=O)C[C@@H](C(=O)N2CCC2)N(C)C(=O)[C@H](C2CCCC2)N(C)C(=O)C2(CCCC2)NC(=O)[C@@H]2CCCN2C(=O)[C@H](CCc2ccc(C(F)(F)F)c(Cl)c2)NC(=O)CN(CC)C(=O)[C@H](CC2CCCCC2)N(C)C(=O)[C@@H]2CCN2C(=O)[C@H](C)N(C)C1=O [Compound 726] ([NMeL]I[NMeA][Aze][NMeCha][NEtG][hPhe(3-Cl-4-CF3)]P[Ac5c][NMeGly(cPent)][NMeD]-{Azetidin(1-yl)}; lactam N-11) | 1.3
5 | CC(C)C[C@H]1C(=O)N[C@@H](CC2CCC2)C(=O)N(C)[C@@H](C)C(=O)N2CC[C@H]2C(=O)N(C)[C@@H](CC2CCCCC2)C(=O)N(C)CC(=O)N[C@@H](CCc2ccc(C(F)(F)F)c(Cl)c2)C(=O)N2CCC[C@H]2C(=O)NC2(CCCC2)C(=O)N(C)[C@@H](C(C)C)C(=O)N(C)[C@H](C(=O)N2CCCCC2)CC(=O)N1C [Compound 733] ([NMeL][Cba][NMeA][Aze][NMeCha][Sar][hPhe(3-Cl-4-CF3)]P[Ac5c][NMeV][NMeD]-Piperidide; lactam N-11) | 51
6 | CC[C@H](C)[C@@H]1NC(=O)[C@H](C(C)C)N(C)C(=O)C[C@@H](C)NC(=O)[C@H](CC(C)C)N(C)C(=O)C(C)(C)NC(=O)[C@H](CC(C)C)N(C)C(=O)[C@H](CCc2ccc(C(F)(F)F)c(Cl)c2)NC(=O)CN(C)C(=O)[C@H](Cc2ccc(Cl)cc2)N(C)C(=O)CN(C)C(=O)CN(C)C1=O [Compound 740] (cyclo([Aib][NMeL][d(β3hA)][NMeV]I[Sar][Sar][NMePhe(4-Cl)][Sar][hPhe(3-Cl-4-CF3)][NMeL])) | 11
7 | CCO[C@@H]1C[C@H]2C(=O)NC3(CCC3)C(=O)N(C)[C@@H](C3CCCCC3)C(=O)N(C)[C@H](C)CC(=O)N(C)[C@@H](CC(C)C)C(=O)N[C@@H]([C@@H](C)CC)C(=O)N[C@@H](C)C(=O)N3CC[C@H]3C(=O)N(CC)[C@@H](Cc3ccc(C(F)(F)F)cc3)C(=O)N(C)CC(=O)N[C@@H](CCc3ccc(C(F)(F)F)c(Cl)c3)C(=O)N2C1 [Compound 743] (cyclo(A[Aze][NEtPhe(4-CF3)][Sar][hPhe(3-Cl-4-CF3)][Hyp](Et)[Ac4c][NMeChg][NMedβ3hAla][NMeL]I)) | 40
8 | CC[C@H](C)[C@@H]1NC(=O)[C@H](C)N(C)C(=O)C[C@@H](C)NC(=O)[C@H](C2CCCC2)N(C)C(=O)C2(CCCC2)NC(=O)[C@@H]2CCCN2C(=O)[C@H](CCc2ccc(C(F)(F)F)c(Cl)c2)NC(=O)CN(C)C(=O)[C@H](Cc2ccc(C(F)(F)F)cc2)N(C)C(=O)[C@@H]2CCCN2C(=O)CN(C)C1=O [Compound 749] (cyclo([Ac5c][NMeGly(cPent)][d(β3hA)][NMeA]I[Sar]P[NMePhe(4-CF3)][Sar][hPhe(3-Cl-4-CF3)]P)) | 2.8
9 | CC[C@H](C)[C@@H]1NC(=O)[C@H](COC2CCC2)N(C)C(=O)C[C@@H](C(=O)N2CCCCC2)N(C)C(=O)[C@H](C(C)C)N(C)C(=O)C2(CCCC2)NC(=O)[C@@H]2CCCN2C(=O)[C@H](CCc2ccc(C(F)(F)F)c(Cl)c2)NC(=O)CN(C)C(=O)[C@H](CC2CCCCC2)N(C)C(=O)[C@@H]2CCN2C(=O)[C@H](C)N(C)C1=O [Compound 755] ([NMeS](Cyclobutyl)I[NMeA][Aze][NMeCha][Sar][hPhe(3-Cl-4-CF3)]P[Ac5c][NMeV][NMeD]-Piperidide; lactam N-11) | 5.6
